# Measured values: publication PMC4503722, “Novel Phenotypic Outcomes Identified for a Public Collection of Approved Drugs from a Publicly Accessible Panel of Assays” (PLoS ONE, 2015)
# Read-outs that look alike come from different tables or passages of the source.
# Columns and labels:
# DLD-1 = experiment: cells; assay type: cell-based
# RKO = experiment: cells; assay type: cell-based
# [1] = tested on: ECFC/ADSC co-culture cell nuclei number
# HCT116 = experiment: cells; assay type: cell-based
# SNU-C1 = experiment: cells; assay type: cell-based
# Colo320 = experiment: cells; assay type: cell-based
# HT-29 = experiment: cells; assay type: cell-based
# SW480 = experiment: cells; assay type: cell-based
# [2] = tested on: HCT116 cells treated with a GSK3β inhibitor; experiment: cells; assay type: cell-based
# HeLa cells = experiment: cells; assay type: cell-based;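 for Hela CellCycMod PI 4N summarized IC50: value tracks stimulation of 4N DNA content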
# [3] = tested on: endothelial tube formation in co-cultures of ECFCs and ADSCs treated with VEGF; experiment: cells; assay type: cell-based, human
# [4] = assay number 23, concentration response
# [5] = assay number 29, concentration response
# [6] = assay number 25, basal, concentration response
# [7] = assay number 30, concentration response
# [8] = assay number 27, concentration response
# [9] = assay number 28, concentration response
# [10] = assay number 24, concentration response
# [11] = assay number 26, GSK3b inhibitor pretreated, concentration response
Structure (SMILES),Basal_Viability ATP DLD-1 IC50/EC50 (DLD-1),Basal_Viability ATP RKO IC50/EC50 (RKO),VEGF_ADSC\ECFC Angio Hoechst NucArea IC50/EC50 [1],Basal_Viability ATP HCT116 IC50/EC50 (HCT116),Basal_Viability ATP SNU-C1 IC50/EC50 (SNU-C1),Basal_Viability ATP Colo 320 IC50/EC50 (Colo320),Basal_Viability ATP HT-29 IC50/EC50 (HT-29),Basal_Viability ATP SW480 IC50/EC50 (SW480),GSK3b inh pretreated_Viability ATP HCT116 IC50/EC50 [2],Hela CellCycMod PI 2N IC50/EC50 (HeLa cells),Hela CellCycMod PI 4N IC50/EC50 (HeLa cells),Hela CellCycMod PI Cell Number IC50/EC50 (HeLa cells),Hela CellCycMod PI MI IC50/EC50 (HeLa cells),Hela CellCycMod PI S Phase IC50/EC50 (HeLa cells),VEGF_ADSC\ECFC Angio CD31 TubeArea IC50/EC50 [3],Basal_Viability ATP DLD-1 IC50/EC50 (DLD-1; [4]),Basal_Viability ATP RKO IC50/EC50 (RKO; [5]),Basal_Viability ATP HCT116 IC50/EC50 (HCT116; [6]),Basal_Viability ATP SNU-C1 IC50/EC50 (SNU-C1; [7]),Basal_Viability ATP Colo 320 IC50/EC50 (Colo320; [8]),other results
CCc1oc2ccccc2c1C(=O)c1cc(I)c(O)c(I)c1 [NCGC00160408-03],0.003 µM,0.003 µM,> 10 µM,0.003 µM,0.001 µM,0.003 µM,0.001 µM,0.001 µM,0.001 µM,> 10 µM,> 10 µM,> 10 µM,> 10 µM,> 10 µM,5.8547 µM,,,,,,
O=C1C(I)=CC(=C(c2cc(I)c(O)c(I)c2)c2ccccc2C(=O)O)C=C1I [NCGC00161636-02],,,,,,,,,,,,,,,,,,,,,IC50 (DLD-1; read-out: Basal_Viability ATP DLD-1 summarized IC50): 13.2 nM; IC50 (RKO; read-out: Basal_Viability ATP RKO summarized IC50): 37.3 nM; IC50 ([1]; read-out: VEGF_ADSC\ECFC Angio Hoechst NucArea summarized IC50): > 10 µM; IC50 (HCT116; read-out: Basal_Viability ATP HCT116 summarized IC50): 384 nM; IC50 (SNU-C1; read-out: Basal_Viability ATP SNU-C1 summarized IC50): 3.76 µM; IC50 (Colo320; read-out: Basal_Viability ATP Colo 320 summarized IC50): 312 nM; IC50 (HT-29; read-out: Basal_Viability ATP HT-29 summarized IC50): 5.73 µM; IC50 (SW480; read-out: Basal_Viability ATP SW480 summarized IC50): 112 nM; IC50 ([2]; read-out: GSK3b inh pretreated_Viability ATP HCT116 summarized IC50): 54 nM; IC50 (HeLa cells; read-out: Hela CellCycMod PI 2N summarized IC50): > 10 µM; IC50 (HeLa cells; read-out: Hela CellCycMod PI 4N summarized IC50): > 10 µM; IC50 (HeLa cells; read-out: Hela CellCycMod PI Cell Number summarized IC50): > 10 µM; IC50 (HeLa cells; read-out: Hela CellCycMod PI MI summarized IC50): > 10 µM; IC50 (HeLa cells; read-out: Hela CellCycMod PI S Phase summarized IC50): > 10 µM; IC50 ([3]; read-out: VEGF_ADSC\ECFC Angio CD31 TubeArea summarized IC50): > 10 µM
CO[C@@]12[C@H](COC(N)=O)C3=C(C(=O)C(C)=C(N)C3=O)N1C[C@@H]1N[C@@H]12 [NCGC00163468-05],5.6318 µM,0.9953 µM,5.961 µM,13.6261 µM,8.1272 µM,12.5546 µM,2.5705 µM,12.0548 µM,> 20 µM,0.0133 µM,> 10 µM,0.07733 µM,> 10 µM,0.1428 µM,0.1019 µM,,,,,,
CCCCC(CC)CN=C(N)NC(N)=NCCCCCCN=C(N)NC(N)=NCC(CC)CCCC (centres unmarked) [NCGC00178352-06],,,,,,,,,,,,,,,,,,,,,"IC50/EC50, Basal_Viability ATP DLD-1 (assay number 23) (DLD-1): 0.0197 µM; IC50/EC50, Basal_Viability ATP RKO (assay number 29) (RKO): 0.2228 µM; IC50/EC50, VEGF_ADSC\ECFC Angio Hoechst NucArea (assay number 3) [1]: > 10 µM; IC50/EC50, Basal_Viability ATP HCT116 (assay number 25) (HCT116): 0.7096 µM; IC50/EC50, Basal_Viability ATP SNU-C1 (assay number 30) (SNU-C1): 0.0941 µM; IC50/EC50, Basal_Viability ATP Colo 320 (assay number 27) (Colo320): 4.1 nM; IC50/EC50, Basal_Viability ATP HT-29 (assay number 28) (HT-29): 0.0302 µM; IC50/EC50, Basal_Viability ATP SW480 (assay number 24) (SW480): 0.3327 µM; IC50/EC50, GSK3b inh pretreated_Viability ATP HCT116 (assay number 26) [2]: 0.3963 µM; IC50/EC50, Hela CellCycMod PI 2N (assay number 14) (HeLa cells): > 10 µM; IC50/EC50, Hela CellCycMod PI 4N (assay number 16) (HeLa cells): > 10 µM; IC50/EC50, Hela CellCycMod PI Cell Number (assay number 18) (HeLa cells): 0.0186 µM; IC50/EC50, Hela CellCycMod PI MI (assay number 17) (HeLa cells): > 10 µM; IC50/EC50, Hela CellCycMod PI S Phase (assay number 15) (HeLa cells): > 10 µM; IC50/EC50, VEGF_ADSC\ECFC Angio CD31 TubeArea (assay number 2) [3]: 0.4078 µM"
C=CC(C)(O)CCC=C(C)CCC=C(C)C (centres unmarked) [NCGC00344526-01],,,> 10 µM,,,,,,,,,,,,> 10 µM,> 20 µM,> 20 µM,> 20 µM,> 20 µM,10.2751 µM,"Basal_Viability ATP HT-29 IC50/EC50 (HT-29; [9]): > 20 µM; Basal_Viability ATP SW480 IC50/EC50 (SW480; [10]): > 20 µM; GSK3b inh pretreated_Viability ATP HCT116 IC50/EC50 [2, 11]: > 20 µM"
CC1(C)[C@H](C=C(Cl)Cl)[C@@H]1C(=O)OCc1c(F)c(F)cc(F)c1F [NCGC00344542-01],,,> 10 µM,,,,,,,,,,,,> 10 µM,> 20 µM,> 20 µM,> 20 µM,> 20 µM,> 20 µM,"Basal_Viability ATP HT-29 IC50/EC50 (HT-29; [9]): > 20 µM; Basal_Viability ATP SW480 IC50/EC50 (SW480; [10]): > 20 µM; GSK3b inh pretreated_Viability ATP HCT116 IC50/EC50 [2, 11]: > 20 µM"
